Experimental data as given in US9493466B2, “Treatment of cancer with TOR kinase inhibitors” (Signal Pharmaceuticals, LLC, priority 2011, dated 2016).

Experiments:
NCI-H441 tumors = test: NCI-H441 NSCLC in vivo tumor growth model; design: species or system SCID mice; conditions: 1 to 10 mg/kg oral BID, up to 26 days; FIG. 9
Procedure: NCI-H441 NSCLC In Vivo Tumor Growth Model. A xenograft study was conducted with NCI-H441 tumor-bearing mice. SCID mice were inoculated subcutaneously with NCI-H441 cells in the flank region above the right hind leg. Following inoculation of the animals, the tumors were allowed to grow to about 100 mm^3 prior to randomization. On Day 14 following tumor cell inoculation, the mice bearing NCI-H441 tumors ranging between 87 and 136 mm^3 were pooled together and randomized into various treatment groups. Compound 1 was formulated in 0.5% CMC and 0.25% Tween 80 in water (as a suspension). The animals were orally administered vehicle (CMC-Tween) or Compound 1 twice daily (BID) for up to 26 days. Doses of Compound 1 ranged between 1 and 10 mg/kg. The positive control rapamycin (4 mg/kg, Q3D) was administered via the intraperitoneal (IP) route. Rapamycin was prepared as solution in 2% ethanol, 45% polyethyleneglycol 400, and 53% saline. Tumors were measured twice a week using calipers and tumor volumes were calculated using the formula of W^2×L/2. Statistical analysis was performed using a one-way analysis of variance (ANOVA) followed by Dunnett's post-hoc comparison with the vehicle-treated control group.

[1] = tested on: NSCLC primary tumor grafts; test: Low passage tumorgraft models of NSCLC; assay type: in vivo, immunocompromised mice; conditions: 1, 5 and 10 mg/kg once daily for 28 days
Procedure: In Vivo Evaluation of Compound 1 in Low Passage Tumorgraft Models of Non-Small Cell Lung Cancer (NSCLC). The objective of the study was to evaluate the single agent efficacy of Compound 1 in non-small cell lung cancer (NCSLC) models. The antitumor activity of Compound 1 was evaluated in low passage non-small cell lung cancer (NSCLC) tumorgraft models. The tumorgrafts were developed by directly implanting the human tumor fragments into immunocompromised mice and then subsequently passaged in vivo. The tumors from these primary tumorgrafts have preserved biological and morphological characteristics of the original human tumors. The antitumor activity of Compound 1 was evaluated at three dose levels (1, 5 and 10 mg/kg) with once daily dosing for 28 days. During the course of the study antitumor activity was evaluated by measuring the tumors.

[2] = tested on: TORC1 (pS6, p4EBP1) and TORC2 (pAkt) pathways; test: TOR pathway biomarker measurements in whole blood; assay type: in vivo, human
Description: Parameters to be explored include mTOR biomarker inhibition in blood and tumor, histopathologic response, correlations with pharmacogenomic findings and percentage of inhibition of pAKT (Ser473), phospho-S6RP (Ser235/236 and/or Ser240/244), phospho-4EB-P1 (Thr37/46), and/or other relevant biomarkers in peripheral blood samples and tumor, adverse events and clinical outcome. The pharmacodynamic (PD) measurements are incorporated in this study to evaluate target inhibition of mTORC1 and mTORC2 pathways, the consequences of such inhibition, and PK/PD relationships. In Parts A and B, biomarker analysis will involve measuring pAKT (mTORC2) in protein lysates derived from isolated platelets. Levels of p4EB-P1 and pS6RP (mTORC1), and pAKT (mTORC2), will be measured by flow cytometry using whole blood samples. Likewise, in Parts A and B, pAKT, p4EB-P1, p56, Ki67 and/or other relevant markers to assess Compound 1 activity will be measured in serial tumor biopsies from subjects with accessible disease when possible. The changes of each biomarker will be determined by comparing the levels of biomarkers in pre- and post-treatment samples and, where possible, correlate these with drug exposure in blood, and tissue if available, and tumor response over time. Full details of all statistical analyses and modeling for these outcomes will be described in the statistical analysis plan and final study report.
TOR Pathway Biomarker Measurements in Whole Blood. Blood samples received from clinical sites were aliquoted into a 96-deepwell plate and rested for 1 hour at 37° C. The samples were stimulated with anti-IgD and LPS for 15 minutes at 37° C. The red blood cells were lysed and the white blood cells were fixed with BD Lyse/Fix Buffer at a ratio of 15:1 buffer to blood for 10 minutes at 37° C. The plates were centrifuged, aspirated, and 1 mL of ice-cold methanol was added to the wells containing fixed white blood cells to permeabilize the cells for intracellular staining. The plates were stored overnight at −80° C. The plates were thawed, centrifuged, aspirated and washed twice with PBS+0.5% BSA. The cells were stained with antibodies specific for the surface markers CD3, CD14, and CD19, and for mTOR pathway markers, including pS6 (S235/236), p4EBP1 (T37/46), and pAKT (S473). The cells were washed twice with PBS and fixed with 1.6% PFA.
Sample analysis: The samples were analyzed on an 8 color cytometer. Control wells of 8-peak rainbow beads (Spherotech Libertyville, Ill.) were acquired at multiple points during sample acquisition. The median fluorescence intensity (MFI) was computed for each marker from the fluorescence intensity levels in T cells, B cells, and monocytes. The MFI were normalized using the 8-peak rainbow beads and presented as ERF (Equivalent number of Reference Fluorophores). ERFs were calculated from the MFIs using a linear regression transformation carried out on a log-log scale using the rainbow calibration particles with 8 intensities on 8 colors. The percent change from baseline for pS6, p4EBP1, and pAKT in stimulated and non-stimulated T cells, B cells, and monocytes was determined for each patient. The baseline value was an average of two visits (screening and cycle 1/day −1 at 0 hr pre-dose) when available.

CO[C@H]1CC[C@H](N2C(=O)CNc3ncc(-c4ccc(C(C)(C)O)nc4)nc32)CC1 [Compound 1, 7-(6-(2-hydroxypropan-2-yl)pyridin-3-yl)-1-((1r,4r)-4-methoxycyclohexyl)-3,4-dihydropyrazino-[2,3-b]pyrazin-2(1H)-one]
tumor growth (NCI-H441 tumors): significantly inhibited | growth of tumor grafts [1]: significantly inhibited | inhibition of TORC1 and TORC2 biomarkers ([2]; Part A, doses of 30 mg and higher, up to 5 hours post first dose, stimulated blood): Consistent inhibition | TORC1 and TORC2 inhibition ([2]; Part B, DLBCL patients): observed in the first patient analyzed | TORC1 and TORC2 inhibition ([2]; Part B, GBM patients): observed in majority of patients | TORC1 and TORC2 inhibition ([2]; Part B, HCC patients): observed in majority of patients | TORC1 and TORC2 inhibition ([2]; Part B, MM patients): observed in 2 patients | TORC1 and TORC2 inhibition ([2]; Part B, NSCLC patients): observed in majority of patients | TORC1 and TORC2 inhibition (pAkt, p4EPB1) ([2]; Part B, all cohorts, blood, 1.5 h after dosing, Cycle 1 Day 1 and Day 15, P <0.001): inhibition was observed
